One series has as its system K562 cells. Description: Proliferation experiments with combinations, WST-1 colorimetry. The conditions noted are these: for reduction of the IC50 value of the combination partner in combination with substance A: substance A at a concentration just short of an antiproliferative effect. Type of series: cell-based. Here is the method:
The effect of the combination containing substance A and cisplatin, doxorubicin, vincristine, and camptothecin, was tested in proliferation experiments. For this purpose, substance A was dissolved in medium at a stock concentration of 1 mg/ml. The other substances were dissolved in water or DMSO (dimethylsulfoxide) at the same stock concentration of 1 mg/ml. The series' of experiments were performed in 96-well plates. […] Cells in the absence of substance and pure medium served as the controls. The in-vitro activity of the test substances was determined by colorimetry on the basis of cleavage of the tetrazolium salt, WST-1 (Roche Molecular Biochemicals, Mannheim, Del.). For this purpose, the cultures were incubated with 10 μl WST for 4 hours. Then the plates were shaken gently. The optical density was measured with an ELISA reader (Spectra MAX 340PC, Molecular Devices, Ismaning, Del.) at wavelengths from 440 to 650 nm. The IC50 value was determined for each substance. In the case of the combination, one of the substances was used at a concentration just short of showing an antiproliferative effect and the IC50 value of the combination was then determined after the addition of the second substance.
A general note: Tetrazolium dyes change colour on reduction, which living cells bring about.

The subject of another series is MethA fibrosarcoma. The conditions noted are these: for percent inhibition relative to the control values of group 1, Day 21 / percent inhibition relative to the control values of group 1, Day 28: + means increase; for Effect on tumor growth (antitumoral / antiproliferative), in words: MethA fibrosarcoma model, 3-100 mg/kg once weekly i.p.; for Tumor volume Day 21 / Tumor volume Day 28: median of 10 animals, once weekly i.p. The text has this:
The substances, 5-fluoro-2′-deoxyuridine-5′-phosphoric acid-(3-dodecyl-thio-2-decyloxy)propylester (substance A) and 3′-azido-3′-deoxythymidine-5′-phosphoric acid-(3-dodecylthio-2-decyloxy)propylester (substance B), have been tested in the murine MethA fibrosarcoma model, amongst other tests, under in-vivo conditions for their antitumoral or antiproliferative potency and efficacy.
MethA fibrosarcoma cells were propagated intraperitoneal (i.p.) in the form of ascites tumor in female CB6F1 mice (Charles River Laboratories, Sulzfeld, Germany). For the entire duration of the tests, the animals were kept in macrolon cages under laminar flow conditions at 23±1° C. room temperature, 55±15% relative humidity and a light-dark cycle of 12 h each. […] Prior to enrolment in the corresponding experiment, the animals were accustomed to the conditions for at least 14 days. The animals were routinely checked for infection by murine viruses.
To test the active substance, female CB6F1 mice 6-8 weeks of age were inoculated with 1×10^5 MethA fibrosarcoma cells per mouse by the subcutaneous (s.c.) route. The tumor growth in control group mice and in animals of the verum-treated groups was determined regularly in weekly intervals by measuring the two perpendicular tumor diameters as described in Hermann D. B. J., Pahlke W., Opitz H.-G. and Bicker U., Cancer Treatment Reviews, 17, 247-252, 1990. The test substances were tested in a dose-dependent fashion with once weekly i.p. administration in phosphate-buffered saline (PBS). Animals in the control group were treated with placebo (PBS).
Tumor volumes on days 21 and 28 after tumor cell inoculation are expressed as medians of 10 animals per experimental group.

The conditions of series [1]: for Blood levels: HB / Blood levels: HCT / Blood levels: MCH / Blood levels: MCHC / Blood levels: MCV / Blood levels: PLT / Blood levels: RBC / Blood levels: WBC / Organ weight: Brain / Organ weight: Colon / Organ weight: Heart / Organ weight: Intestines / Organ weight: Kidney / Organ weight: Liver / Organ weight: Lungs / Organ weight: Ovaries / Organ weight: Spleen / Organ weight: Stomach / Bone marrow cell count: mean ± SEM; for Bone marrow cell count: 10 animals; for Body weight: median. The protocol:
Substance A was tested in female NMRI mice for its tolerability. The animals were kept under the same conditions as described in Example 1.
Female NMRI mice, 6-8 weeks of age (Charles River Laboratories, Sulzfeld, Germany), were treated with 1 or 1.5 g/kg of substance A administered by an esophageal probe. Subsequently, the following toxicity parameters were determined: • Blood counts, including white blood cell concentration (WBC), red blood cells concentration (RBC), hemoglobin (HB), hematocrit (HCT), platelet concentration (PLT), mean corpuscular volume (MCV), mean corpuscular hemoglobin (MCH) and mean corpuscular hemoglobin concentration (MCHC), • Bone marrow cell count, i.e. number of bone marrow cells per femur (M/femur), • Body weight • Organ weights, including weight of colon, heart, brain, intestines, lungs, liver, stomach, spleen, kidneys, ovaries.

[2] abbreviates: 3 mg/kg/application, day 21 after tumor cell inoculation.
Setting [3] is: partner at a concentration just short of an antiproliferative effect.
Setting [4] is: very high dosage (1 or 1.5 g/kg).

The structures appear in SMILES notation. Like-named read-outs stand apart in the source and are kept apart here. Marks after values point to notes of the source that are not given here.

In the case of `CC[C@@]1(O)C(=O)OCc2c1cc1n(c2=O)Cc2cc3ccccc3nc2-1` [camptothecin, reference compound], the “reduction of the IC50 value of the combination partner in combination with substance A” value (from here on “reduction of the IC50 value … with substance A”) in the series with K562 cells is listed as “approx. 90%”.

`CCCCCCCCCCCCSCC(COP(=O)(O)OC[C@H]1O[C@@H](n2cc(C)c(=O)[nH]c2=O)C[C@@H]1N=[N+]=[N-])OCCCCCCCCCC` (some centres unmarked) [Substance B, 3′-azido-3′-deoxythymidine-5′-phosphoric acid-(3-dodecylthio-2-decyloxy)propylester, reference compound]: the “percent inhibition relative to the control values of group 1, Day 21” value in the series with MethA fibrosarcoma (3 mg/kg/application, day 21) is 0.8%; in the series on MethA fibrosarcoma (30 mg/kg/application, day 21), “+1.7%”; in the series on MethA fibrosarcoma (100 mg/kg/application, day 21), 0.3%. Further, the “percent inhibition relative to the control values of group 1, Day 28” value with MethA fibrosarcoma (3 mg/kg/application) was “+4.1%”; in the series on MethA fibrosarcoma (30 mg/kg/application), “+1.4%”; in the series with MethA fibrosarcoma (100 mg/kg/application) it was “+2.8%”. The “Effect on tumor growth (antitumoral / antiproliferative), in words” value in the series on MethA fibrosarcoma is given as “no antitumoral or antiproliferative properties”. Besides, the “Tumor volume Day 21” value with MethA fibrosarcoma (setting [2]) worked out at 3.998 mm^3; in the series on MethA fibrosarcoma (30 mg/kg/application, day 21) it was 4.102 mm^3; in the series on MethA fibrosarcoma (100 mg/kg/application, day 21), 4.021 mm^3. In addition, the “Tumor volume Day 28” value was 10.228 mm^3 with MethA fibrosarcoma (3 mg/kg/application), 9.963 mm^3 in the series with MethA fibrosarcoma (30 mg/kg/application) and 10.098 mm^3 with MethA fibrosarcoma (100 mg/kg/application).

Regarding `COc1cccc2c1C(=O)c1c(O)c3c(c(O)c1C2=O)C[C@@](O)(C(=O)CO)C[C@@H]3O[C@H]1C[C@H](N)[C@H](O)[C@H](C)O1` [doxorubicin, reference compound], the “reduction of the IC50 value … with substance A” value with K562 cells is listed as “approx. 50%”.

For `CCCCCCCCCCCCSCC(COP(=O)(O)OC[C@H]1O[C@@H](n2cc(F)c(=O)[nH]c2=O)C[C@@H]1O)OCCCCCCCCCC` (some centres unmarked) [Substance A, 5-fluoro-2′-deoxyuridine-5′-phosphoric acid-(3-dodecyl-thio-2-decyloxy)propylester], the “percent inhibition relative to the control values of group 1, Day 21” value with MethA fibrosarcoma (3 mg/kg/application, day 21) is 59.1%. In the series with MethA fibrosarcoma (3 mg/kg/application), the “percent inhibition relative to the control values of group 1, Day 28” value is 57.6% and the “Tumor volume Day 28” value was 4.163 mm^3. Besides, in the series with MethA fibrosarcoma (30 mg/kg/application, day 21), the “percent inhibition relative to the control values of group 1, Day 21” value is reported as 89.7% and the “Tumor volume Day 21” value came to 416 mm^3. Further, in the series with MethA fibrosarcoma (30 mg/kg/application), the “percent inhibition relative to the control values of group 1, Day 28” value amounted to 87.2% and the “Tumor volume Day 28” value came to 1.254 mm^3. Also, in the series with MethA fibrosarcoma (100 mg/kg/application, day 21), the “percent inhibition relative to the control values of group 1, Day 21” value was found to be 91.1% and the “Tumor volume Day 21” value is 357 mm^3. Besides, in the series with MethA fibrosarcoma (100 mg/kg/application), the “percent inhibition relative to the control values of group 1, Day 28” value turned out to be 92.2% and the “Tumor volume Day 28” value was 762 mm^3. For the same molecule, the “Effect on tumor growth (antitumoral / antiproliferative), in words” value in the series on MethA fibrosarcoma is “inhibits tumor growth highly significantly and in a dose- and time-dependent fashion”. Besides, the “Tumor volume Day 21” value in the series with MethA fibrosarcoma (setting [2]) was 1.649 mm^3. In the series with K562 cells (setting [3]), the “reduction of the IC50 value of substance A in combination with camptothecin” value is on record as “approx. 40%”, the “reduction of the IC50 value of substance A in combination with cisplatin” value is given as 25%, the “reduction of the IC50 value of substance A in combination with doxorubicin” value is on record as “approx. 30%” and the “reduction of the IC50 value of substance A in combination with vincristine” value is “approx. 60%”. For the same molecule, in series [1] (1 g/kg), the “Blood levels: HB” value is 17850 ± 390 µg/mL, the “Blood levels: HCT” value turned out to be 47.93 ± 1.16%, the “Blood levels: MCH” value came to 19.28 ± 0.22 pg and the “Blood levels: MCHC” value stood at 37.29 ± 0.44 g/dL. Also, in series [1] (1 g/kg), the “Blood levels: MCV” value is 51.50 ± 0.58 fL, the “Blood levels: PLT” value is recorded as 1153 ± 41 k/μl, the “Blood levels: RBC” value turned out to be 9.31 ± 0.23 M/μl and the “Blood levels: WBC” value is 14.34 ± 2.18 k/μl. In addition, in series [1] (1 g/kg), the “Organ weight: Brain” value came to 399 ± 8 g, the “Organ weight: Colon” value was 373 ± 15 g, the “Organ weight: Heart” value turned out to be 133 ± 4 g and the “Organ weight: Intestines” value is reported as 1.622 ± 61 g. For the same molecule, in series [1] (1 g/kg), the “Organ weight: Kidney” value is recorded as 361 ± 17 g, the “Organ weight: Liver” value came out at 1.602 ± 42 g, the “Organ weight: Lungs” value worked out at 226 ± 9 g and the “Organ weight: Ovaries” value was determined as 183 ± 17 g. Moreover, in series [1] (1 g/kg), the “Organ weight: Spleen” value worked out at 125 ± 9 g, the “Organ weight: Stomach” value turned out to be 232 ± 7 g, the “Bone marrow cell count” value is recorded as 28.48 ± 0.86 M/Femur and the Body weight is recorded as 28.7^c g. In series [1] (1 or 1.5 g/kg of body weight), the “Tolerability parameters compared to the placebo-treated control group, in words” value is reported as “no significant reduction in the tolerability parameters”. Moreover, in series [1] (1.5 g/kg), the “Blood levels: HB” value was 15790 ± 920 µg/mL, the “Blood levels: HCT” value is 43.42 ± 2.77%, the “Blood levels: MCH” value stood at 19.09 ± 0.37 pg and the “Blood levels: MCHC” value is 36.53 ± 0.38 g/dL. For the same molecule, in series [1] (1.5 g/kg), the “Blood levels: MCV” value turned out to be 52.09 ± 0.81 fL, the “Blood levels: PLT” value amounted to 1431 ± 172 k/μl, the “Blood levels: RBC” value is listed as 8.34 ± 0.56 M/μl and the “Blood levels: WBC” value was determined as 16.97 ± 6.05 k/μl. In addition, in series [1] (1.5 g/kg), the “Organ weight: Brain” value came out at 387 ± 18 g, the “Organ weight: Colon” value came to 392 ± 29 g, the “Organ weight: Heart” value is 126 ± 9 g and the “Organ weight: Intestines” value came out at 1.807 ± 112 g. In series [1] (1.5 g/kg), the “Organ weight: Kidney” value came to 351 ± 26 g, the “Organ weight: Liver” value came out at 1.739 ± 81 g, the “Organ weight: Lungs” value turned out to be 206 ± 9 g and the “Organ weight: Ovaries” value is 203 ± 33 g. Also, in series [1] (1.5 g/kg), the “Organ weight: Spleen” value stood at 204 ± 26 g, the “Organ weight: Stomach” value was found to be 232 ± 16 g, the “Bone marrow cell count” value was 31.44 ± 1.51 M/Femur and the Body weight is reported as 27.9^c g. Also, in series [1] (setting [4]), the “Bone marrow suppression, hematotoxicity or unspecific-toxic organ intolerance, in words” value is given as “no evidence of bone marrow suppression, hematotoxicity or unspecific-toxic organ intolerance” and the “Unspecific-toxic properties under in-vivo conditions, in words” value is on record as “no unspecific-toxic properties”.

As to `N.N.[Cl][Pt][Cl]` [cisplatin, reference compound], in the series on K562 cells, the “reduction of the IC50 value … with substance A” value was found to be 50%.

For the molecule `CC[C@]1(O)C[C@H]2CN(CCc3c([nH]c4ccccc34)[C@@](C(=O)OC)(c3cc4c(cc3OC)N(C=O)[C@H]3[C@@](O)(C(=O)OC)[C@H](OC(C)=O)[C@]5(CC)C=CCN6CC[C@]43[C@@H]65)C2)C1` [vincristine, reference compound], the “reduction of the IC50 value … with substance A” value in the series with K562 cells is listed as “approx. 65%”.

Source of the values: patent publication US20050090659A1, “Phospholepid derivatives of nucleosides as antitumaorl medicaments” (priority 2001, published 2005).
